Assay [1] relates to Streptococcus pneumoniae. The assay is described as follows: (§1) Inhibition of Streptococcus pneumoniae sialidase NanC using 4-methylumbelliferyl-alpha-D-N-acetylneuraminic acid as substrate after 60 mins by FRET assay.
The nature of assay [2]: as §1.
Assay [3] concerns Streptococcus pneumoniae. The experiment in a line: (§2) Inhibition of Streptococcus pneumoniae sialidase NanB using 4-methylumbelliferyl-alpha-D-N-acetylneuraminic acid as substrate after 60 mins by FRET assay.
Assay [4] is described as follows: as §2.
The target in assay [5] is Sialidase A (Streptococcus pneumoniae) (UniProt P62575). The assay is described as follows: (§3) Inhibition of Streptococcus pneumoniae sialidase NanA using 4-methylumbelliferyl-alpha-D-N-acetylneuraminic acid as substrate after 60 mins by FRET assay.
Sialidase A (Streptococcus pneumoniae), sequence (P62575 whole entry): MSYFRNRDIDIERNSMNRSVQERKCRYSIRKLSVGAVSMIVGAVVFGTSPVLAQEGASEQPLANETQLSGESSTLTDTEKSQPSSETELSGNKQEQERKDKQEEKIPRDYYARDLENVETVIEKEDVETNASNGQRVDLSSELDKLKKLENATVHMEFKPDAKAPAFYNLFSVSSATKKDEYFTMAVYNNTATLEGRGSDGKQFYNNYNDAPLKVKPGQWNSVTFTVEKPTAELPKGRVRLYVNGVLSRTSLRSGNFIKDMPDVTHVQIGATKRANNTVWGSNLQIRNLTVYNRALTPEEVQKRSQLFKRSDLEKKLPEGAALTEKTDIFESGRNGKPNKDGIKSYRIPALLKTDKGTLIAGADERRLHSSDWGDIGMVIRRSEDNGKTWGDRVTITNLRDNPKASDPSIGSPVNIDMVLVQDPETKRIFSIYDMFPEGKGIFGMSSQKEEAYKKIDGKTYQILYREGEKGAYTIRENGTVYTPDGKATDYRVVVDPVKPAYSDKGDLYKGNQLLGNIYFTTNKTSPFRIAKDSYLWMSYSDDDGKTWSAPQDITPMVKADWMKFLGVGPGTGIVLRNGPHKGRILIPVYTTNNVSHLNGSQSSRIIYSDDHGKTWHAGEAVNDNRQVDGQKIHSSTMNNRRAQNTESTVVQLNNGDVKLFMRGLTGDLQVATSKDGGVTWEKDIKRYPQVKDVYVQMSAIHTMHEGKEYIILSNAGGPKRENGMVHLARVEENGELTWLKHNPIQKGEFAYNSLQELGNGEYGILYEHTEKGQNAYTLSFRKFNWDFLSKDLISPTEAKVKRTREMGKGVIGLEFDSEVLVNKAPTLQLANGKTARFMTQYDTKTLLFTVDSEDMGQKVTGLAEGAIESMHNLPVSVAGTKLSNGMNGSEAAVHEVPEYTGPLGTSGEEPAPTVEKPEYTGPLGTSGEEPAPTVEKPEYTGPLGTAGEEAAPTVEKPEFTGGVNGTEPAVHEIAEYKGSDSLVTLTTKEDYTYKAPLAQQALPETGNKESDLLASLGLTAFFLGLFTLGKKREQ
Assay [6] addresses T1, Sialidase A (Streptococcus pneumoniae, UniProt P62575). Described as §3.
In assay [7] the target is T1, Sialidase A. The experiment in a line: Noncompetitive inhibition of Streptococcus pneumoniae sialidase NanA using 4-methylumbelliferyl-alpha-D-N-acetylneuraminic acid as substrate after 60 mins by Lineweaver-Burk plot/Dixon plot analysis.
A short description of assay [8]: Noncompetitive inhibition of Streptococcus pneumoniae sialidase NanC using 4-methylumbelliferyl-alpha-D-N-acetylneuraminic acid as substrate after 60 mins by Lineweaver-Burk plot/Dixon plot analysis.
Assay [9] is described as follows: Noncompetitive inhibition of Streptococcus pneumoniae sialidase NanB using 4-methylumbelliferyl-alpha-D-N-acetylneuraminic acid as substrate after 60 mins by Lineweaver-Burk plot/Dixon plot analysis.
For assay [10], the target named is T1, Sialidase A. The experiment in a line: Competitive inhibition of Streptococcus pneumoniae sialidase NanA using 4-methylumbelliferyl-alpha-D-N-acetylneuraminic acid as substrate after 60 mins by Lineweaver-Burk plot/Dixon plot analysis.

Experimental findings from ChEMBL document CHEMBL4020792, “Sialidase inhibitory activity of diarylnonanoid and neolignan compounds extracted from the seeds of Myristica fragrans” (Bioorg Med Chem Lett, 2017) are described below.

SMILES strings stand for the structures.

T1 sequence (P62575 whole entry): as above

As to `C=CCc1cc(OC)c(O[C@@H](C)[C@H](O)c2ccc(O)c(OC)c2)c(OC)c1`, the inhibition entry (in the assay on Streptococcus pneumoniae [1]; with Streptococcus pneumoniae [3]; in assay [5]) was “Dose-dependent effect” in each case. The half-maximal inhibitory concentration (IC50) is 103 µM in [2] (read-out: IC50), 229 µM in assay [4] (read-out: IC50) and 25.6 µM at Sialidase A [6]. On Sialidase A [7], the affinity corresponds to a Ki of 15.1 µM.

Turning to `COc1cc([C@H]2O[C@@H](c3ccc(O)c(OC)c3)[C@@H](C)[C@@H]2C)ccc1O`, the inhibition entry (in the assay with Streptococcus pneumoniae [1]; with Streptococcus pneumoniae [3]; in [5]) was “Dose-dependent effect” each time. In addition, the half-inhibitory concentration (IC50) turned out to be 274 µM in assay [2] (read-out: IC50), 331 µM in [4] (read-out: IC50) and 37.2 µM at Sialidase A [6]. Further, the inhibitory constant (Ki) on Sialidase A [7] is 21.9 µM.

Turning to `C/C=C/c1cc(OC)c2c(c1)[C@H](C)[C@@H](c1cc(OC)c3c(c1)OCO3)O2`, the inhibition result (in the assay on Streptococcus pneumoniae [1]; in the assay on Streptococcus pneumoniae [3]; in assay [5]) was “Dose-dependent effect” in each case. Further, the figures for the concentration for half-maximal inhibition (IC50) (in assay [2] (read-out: IC50); in assay [4] (read-out: IC50); on Sialidase A [6]) were 317 µM, 92.1 µM and 44.2 µM, respectively. On Sialidase A [7], the inhibition constant (Ki) is 47.5 µM.

As for `C=CCc1cc(OC)c(O)c(OC)c1` [METHOXYEUGENOL], the inhibition entry (in the assay with Streptococcus pneumoniae [1]; in the assay with Streptococcus pneumoniae [3]; in assay [5]) was “Dose-dependent effect” throughout. The half-inhibitory concentration (IC50) in [2] (read-out: IC50) was determined as 33.6 µM; in assay [4] (read-out: IC50), 77.6 µM; on Sialidase A [6] it was 6.9 µM. Moreover, the results for the Ki (at Sialidase A [7]; in [8]) were 4.2 µM and 30.2 µM, respectively.

Turning to `C/C=C/c1cc(OC)c2c(c1)[C@H](C)[C@@H](c1ccc3c(c1)OCO3)O2` [(-)-LICARIN B], the inhibition result (in the assay on Streptococcus pneumoniae [1]; in the assay with Streptococcus pneumoniae [3]; in assay [5]) was “Dose-dependent effect” each time. The IC50 in [2] (read-out: IC50) stood at 30.7 µM; in assay [4] (read-out: IC50), 14 µM; on Sialidase A [6], 1.5 µM. Moreover, the inhibition constant (Ki) at Sialidase A [7] was determined as 1.3 µM; in assay [8] it was 12.1 µM; in assay [9], 13.5 µM.

Regarding `C=CCc1cc(OC)c(O[C@H](C)[C@H](OC(C)=O)c2ccc(OC)c(OC)c2)c(OC)c1`, the IC50 result in assay [2] is “Not Active”; in assay [4], “Not Active”; against Sialidase A [6], 295 µM.

With `O=C(CCCCCCCCc1ccc(O)c(O)c1)c1c(O)cccc1O` [MALABARICONE C], the inhibition result (with Streptococcus pneumoniae [1]; in the assay with Streptococcus pneumoniae [3]; in assay [5]) was “Dose-dependent effect” in each case. Further, the IC50 in assay [2] (read-out: IC50) came out at 2.9 µM; in assay [4] (read-out: IC50), 3.6 µM; against Sialidase A [6] it was 0.3 µM. The inhibition constant Ki at Sialidase A [10] is 0.1 µM; in [8], 2.1 µM; in [9], 3 µM.

Take `C/C=C/c1cc(OC)c2c(c1)[C@H](C)[C@@H](c1ccc(O)c(OC)c1)O2` [LICARIN A]: the inhibition entry (with Streptococcus pneumoniae [1]; in the assay on Streptococcus pneumoniae [3]; in assay [5]) was “Dose-dependent effect” each time. Moreover, the half-inhibitory concentration (IC50) in [2] (read-out: IC50) was 113 µM; in assay [4] (read-out: IC50), 95.8 µM; against Sialidase A [6], 7.9 µM. Affinity on Sialidase A [7] was put at a Ki of 9.4 µM.

With `C=CCc1cc(O)c(OC)c(O)c1`, the inhibition result (in the assay with Streptococcus pneumoniae [1]; in the assay with Streptococcus pneumoniae [3]; in [5]) was “Dose-dependent effect” each time. Further, the IC50 in assay [2] (read-out: IC50) was determined as 60.5 µM; in assay [4] (read-out: IC50), 27.1 µM; on Sialidase A [6], 2 µM. In addition, the Ki on Sialidase A [7] is 4.9 µM; in assay [8] it was 91.8 µM; in [9], 74 µM.

Turning to `O=C(CCCCCCCCc1ccc(O)cc1)c1c(O)cccc1O` [MALABARICONE B], the inhibition result (with Streptococcus pneumoniae [1]; in the assay with Streptococcus pneumoniae [3]; in assay [5]) was “Dose-dependent effect” in each case. Moreover, the values for the IC50 (in assay [2] (read-out: IC50); in [4] (read-out: IC50); on Sialidase A [6]) were 14.3 µM, 5.7 µM and 0.4 µM, respectively. Moreover, the Ki on Sialidase A [10] was 0.5 µM; in [8], 5.8 µM; in assay [9] it was 5.6 µM.

Take `COc1cc([C@@H](O)[C@@H](C)Oc2c(OC)cc(/C=C/CO)cc2OC)ccc1O`: the inhibition entry (with Streptococcus pneumoniae [1]; in the assay with Streptococcus pneumoniae [3]; in [5]) was “Dose-dependent effect” each time. The IC50 came to 24.6 µM in assay [2] (read-out: IC50), 20.9 µM in assay [4] (read-out: IC50) and 1.6 µM against Sialidase A [6]. For the same molecule, the inhibition constant Ki on Sialidase A [7] came out at 3 µM; in assay [8], 37.8 µM; in [9] it was 39.2 µM.
